Ends that are not written are not given here.
Assays:
C. atrox venom = settings: in vivo
O. s. scutellatus venom = settings: in vivo
V. russellii venom = settings: in vivo
Sea snake venom = settings: in vivo
N. n. kaouthia venom = settings: in vivo
[1] = tested on: venoms and their lethal toxins; design: species or system mice; settings: mouse

For LKAMDPTPPLWIKTE [LTNF-15], the “Death/Survival Group II (LTNF Immediately)” value (C. atrox venom) was 0/3, the “Death/Survival Group III (LTNF 1/2 hr before)” value (from here on “Death/Survival Group III”) (C. atrox venom) was 0/3 and the “Death/Survival Group II (LTNF Immediately)” value (O. s. scutellatus venom) was 0/3. For the same sequence, the “Death/Survival Group III” value (O. s. scutellatus venom) was 0/3, the “Death/Survival Group II (LTNF Immediately)” value (V. russellii venom) was 0/3 and the “Death/Survival Group III” value (V. russellii venom) was 0/3. The “Death/Survival Group II (LTNF Immediately)” value (Sea snake venom) was 0/3, the “Death/Survival Group III” value (Sea snake venom) was 0/3 and the “Death/Survival Group II (LTNF Immediately)” value (N. n. kaouthia venom) was 0/3. For the same sequence, the “Death/Survival Group III” value (N. n. kaouthia venom) was 0/3 and the “neutralization of venoms and their lethal toxins in vivo” value [1] was “neutralized in vivo”.
